Columns and labels:
[1] = system: Thrombocyte aggregation induced by arachidonic acid; assay: Thrombocyte aggregation induced by arachidonic acid; type: cell-based, human; settings: arachidonic acid 0.2 mmol
Experimental: (§1) The study of antiaggregant and anticoagulant properties of N,N′-substituted piperazines on the sample of donor human blood. The blood was collected by donor ulnar vein punction with dry sharp needle without syringe. The administration of drugs that influence on thrombocyte function was cancelled in 7÷10 days before the experiment.
(§2) In graduated plastic centrifuge tube 1 ml of 3.8% basic trisodium citrate solution with pH=7.4 was placed. The ulnar vein was punctuated, the freely effluent blood was collected up to 10 ml mark, the mixture was instantly stirred to prevent air bubbles appearance. The collected and stabilized blood was split in two 5 ml portions in two tubes.
(§3) To obtain thrombocyte enriched plasm the stabilized blood was spinned at 1000 rpm (150 g) for 8 min at room temperature. The repeated spinning of the blood at 3200 rpm (2300 g) for 20 min at 22° C. yielded thrombocyte depleted plasm.
The study of antiaggregant properties of N,N′-substituted piperazines with arachidonic acid (CHRONO-LOG, USA) as an inductor: to 450 l of thrombocyte plasm 50 l of N,N′-substituted piperazine solution was added, the mixture was incubated in the cuvette of CHRONO-LOG aggregometer for 15 min at 36° C. The concentration of arachidonic acid in the sample was 0.2 mmol, the concentrations of N,N′-substituted piperazines and comparison substance (aspirin) were 4÷5 mmol/L.
It was shown that N,N′-substituted piperazines have pronounced aspirin-like activity by inhibiting thrombocyte aggregation induced by arachidonic acid (table 5).

[2] = system: experimental photothrombosis; assay: Experimental photothrombosis model, arterial blood velocity; type: in vivo, Wistar male rats
Experimental: The studies were done on Wistar male rats with mass of 230±30 g (laboratory animals nursery “Rappolovo”, RAMS). The animals were kept with unlimited food (standard ration for laboratory rats K-120 by <<Inform-korm>>, Russia) and water allowance. […]
Thrombosis modeling: the drugs were introduced into left femoral vein, in 50 min afterwards 1 ml of Bengal rose A photosensitizer (Acros Organics, USA) solution was introduced with dose of 17 mg/kg [Boselli 2007, Petrischev 2009]. Then the incision of internal surface of animal right thigh about 2 cm in length was made. The section of the femoral vein about 5 mm in length was released from surrounding tissues and separated from neurovascular bundle. Beneath this section of the vein the black non-transparent plastic strip 3 mm in width was laid to screen off the vein and surrounding tissues from radiation. The irradiation was done using diode laser <<DPSS-laser>> (Diode Pumped Solid State Laser, South Korea) with 532 nm wavelength and 60 mW power. The area of irradiation was 1 mm^2, exposing time was 40 min. The blood flow in femoral artery was measured by high frequency Doppler ultrasonography method (<<Minimax-Doppler-K>> apparatus, frequency of sensor was 20 MHz). The blood velocity alteration due to irradiation was measured (Table 9).

[3] = system: Ristocetin-induced thrombocyte aggregation; assay: Ristocetin-induced thrombocyte aggregation, donor human thrombocyte enriched plasm; type: cell-based; settings: ristocetin inductor; for MA (60 c), %: amplitude at 60 s
Experimental: as §1, §2, §3
(§4) The study of anticoagulant activity was done within 2 h after thrombocyte enriched plasm obtaining. The plasm was normalized to achieve thrombocyte concentration of 200-250×10^9/L by addition of thrombocyte-free plasm. The concentration of thrombocytes was measured on SOLAR AR 2110 analyzer.
(§5) Antiaggregant properties of N,N′-substituted piperazines were evaluated by their influence on thrombocyte aggregation in tests with ADP-, collagen- and ristocetin-induced aggregation. To dissolve N,N′-substituted piperazines and to dilute reagents Tris-HCl-buffer with pH=7.4 was used.
(§6) As the general characteristic of thrombocyte aggregation activity the maximum amplitude (MA) of aggregation was taken on. That is the peak value of transmittance coefficient of the sample after aggregation agent introduction expressed in % relative to the transmittance of thrombocyte-free plasm. The response was registered on ascending linear segment of aggregation curve for 16 s.
(§7) The measurements were done using 4-channel CHRONO-LOG 490-4D analyzer (CHRONO-LOG, USA). The temperature in the cell was 37° C., the spinning speed of magnetic stirrer was 1200 rpm.
(§8) In a cuvette 0.5 ml of N,N′-substituted piperazine solution was placed, then 0.4 ml of normalized thrombocyte plasm was added. The mixture was stirred and incubated at 37° C. for 5 min. The cuvette was placed in aggregometer, then 0.05 ml of aggregation inductor solution was added (ADP or collagen or ristocetin). Thrombocyte aggregation was measured for 3 min.
To study ristocetin-induced thrombocyte aggregation CHRONO-PAR RISTOCETIN reagent (CHRONO-LOG, USA) was diluted with buffer solution until ristocetin concentration reached 12 mg/ml. Thrombocyte aggregation amplitude was measured in 60 s after the beginning of the reaction.

[4] = system: Collagen-induced thrombocyte aggregation; assay: Collagen-induced thrombocyte aggregation, donor human thrombocyte enriched plasm; type: cell-based; settings: collagen inductor; for MA, %: human thrombocyte plasm
Experimental: as §1, §2, §3, §4, §5, §6, §7, §8
In collagen-induced thrombocyte aggregation test CHRONO-PAR COLLAGEN reagent (CHRONO-LOG, USA) was diluted with buffer solution until collagen concentration reached 10 µg/ml.

[5] = system: ADP-induced thrombocyte aggregation; assay: ADP-induced thrombocyte aggregation, donor human thrombocyte enriched plasm; type: cell-based; settings: ADP inductor; for MA, %: human thrombocyte plasm
Experimental: as §1, §2, §3, §4, §5, §6, §7, §8
ADP-induced reversible thrombocyte aggregation test utilized CHRONO-PAR ADP reagent (CHRONO-LOG, USA) with 10 mol concentration. Primary (reversible) thrombocyte aggregation was evaluated by the response on addition of ADP threshold dose (ADP concentration is 1 mol) to plasm.

[6] = Homo sapiens, 0.5 mmol/L, read-out: (MA0-MAx): MA0 * 100%
[7] = Homo sapiens, 1.25 mmol/L, read-out: (MA0-MAx): MA0 * 100%

CC(=O)Oc1ccccc1C(=O)O [Acetylsalicylic acid, reference compound]
MA ([1]; 5 mmol/L): 3
Max. rate for 16 sec ([1]; 5 mmol/L): 5
inhibition at 5000 µM ([1]; Homo sapiens, 5 mmol/L): 100%

COc1ccc(CN2CCN(CC(O)CS(=O)(=O)[O-])CC2)c(OC)c1OC.[Na+] (centres unmarked) [Example 3, 3-(1-(2,3,4-trimethoxybenzyl)piperazine-4-yl)-2-hydroxy-1-propanesulfonic acid sodium salt]
V, cm/s (arterial blood velocity) ([2]; 0.01 mmol/kg, 0 min of irradiation): 7.1 ± 3.2 cm/s
V, cm/s (arterial blood velocity) ([2]; 0.01 mmol/kg, 10 min of irradiation): 7.00 ± 2.4 cm/s
V, cm/s (arterial blood velocity) ([2]; 0.01 mmol/kg, 20 min of irradiation): 7.5 ± 2.2 cm/s
V, cm/s (arterial blood velocity) ([2]; 0.01 mmol/kg, 30 min of irradiation): 6.4 ± 1.9 cm/s
V, cm/s (arterial blood velocity) ([2]; 0.01 mmol/kg, 40 min of irradiation): 6.6 ± 1.5 cm/s
V, cm/s (arterial blood velocity) ([2]; 0.025 mmol/kg, 0 min of irradiation): 8.5 ± 1.7 cm/s
V, cm/s (arterial blood velocity) ([2]; 0.025 mmol/kg, 10 min of irradiation): 8.4 ± 1.2 cm/s
V, cm/s (arterial blood velocity) ([2]; 0.025 mmol/kg, 20 min of irradiation): 8.4 ± 3.0 cm/s
V, cm/s (arterial blood velocity) ([2]; 0.025 mmol/kg, 30 min of irradiation): 8.9 ± 1.6 cm/s
V, cm/s (arterial blood velocity) ([2]; 0.025 mmol/kg, 40 min of irradiation): 8.5 ± 1.2 cm/s
(MAx-MA0): MA0 * 100% ([3]; 0.5 mmol/L): 6.1%
MA (60 c), % ([3]; 0.5 mmol/L): 63.0 ± 6.1%
(MAx-MA0): MA0 * 100% (Ozagrel: (MA0-MAx): MA0 * 100%) ([3]; 1.25 mmol/L): 7.5%
MA (60 c), % ([3]; 1.25 mmol/L): 62.1 ± 8.9%
(MAx-MA0): MA0 * 100% (Ozagrel: (MA0-MAx): MA0 * 100%) ([3]; 2.5 mmol/L): 24.0%
MA (60 c), % ([3]; 2.5 mmol/L): 51.0 ± 7.2%
(MAx-MA0): MA0 * 100% (Ozagrel: (MA0-MAx): MA0 * 100%) ([3]; 5.0 mmol/L): 77.5%
MA (60 c), % ([3]; 5.0 mmol/L): 25.1 ± 3.2%

COc1ccc(CN2CCN(C(=N)N)CC2)c(OC)c1OC [Example 7, 4-(2,3,4-trimethoxybenzyl)piperazine-1-carboximidamide monohydrate]
MA ([1]; 4.5 mmol/L): 72
Max. rate for 16 sec ([1]; 4.5 mmol/L): 49
inhibition at 4500 µM ([1]; Homo sapiens, 4.5 mmol/L): 35%

Cl.N=C(N)N1CCN(S(=O)(=O)c2cc(Cl)c(Cl)cc2Cl)CC1 [Example 13, 4-(2,4,5-trichlorophenylsulfonyl)piperazine-1-carboximidamide hydrochloride]
MA ([1]; 4.0 mmol/L): 2
Max. rate for 16 sec ([1]; 4.0 mmol/L): 1
inhibition at 4000 µM ([1]; Homo sapiens, 4.0 mmol/L): 100%
MA, % ([4]; 0.5 mmol/L): 72.1 ± 6.3%
MA, % ([4]; 1.25 mmol/L): 62.0 ± 9.8%
MA, % ([4]; 2.5 mmol/L): 55.0 ± 9.2%
MA, % ([4]; 5.0 mmol/L): 48.7 ± 7.1%
inhibition at 500 µM [4, 6]: 7.2%
inhibition at 1250 µM [4, 7]: 20.2%
inhibition at 2500 µM ([4]; Homo sapiens, 2.5 mmol/L, read-out: (MA0-MAx): MA0 * 100%): 29.2%
inhibition at 5000 µM ([4]; Homo sapiens, 5.0 mmol/L, read-out: (MA0-MAx): MA0 * 100%): 37.3%
MA, % ([5]; 0.2 mmol/L): 14.0 ± 3.9%
MA, % ([5]; 0.5 mmol/L): 10.3 ± 1.3%
MA, % ([5]; 1.25 mmol/L): 4.7 ± 2.1%
MA, % ([5]; 2.50 mmol/L): 1.4 ± 0.2%
inhibition at 200 µM ([5]; Homo sapiens, 0.2 mmol/L, read-out: (MA0-MAx): MA0 * 100%): 10.8%
inhibition at 500 µM [5, 6]: 34.4%
inhibition at 1250 µM [5, 7]: 70.1%
inhibition at 2500 µM ([5]; Homo sapiens, 2.50 mmol/L, read-out: (MA0-MAx): MA0 * 100%): 91.1%
(MAx-MA0): MA0 * 100% ([3]; 0.2 mmol/L): 1.8%
MA (60 c), % ([3]; 0.2 mmol/L): 60.1 ± 8.1%
(MAx-MA0): MA0 * 100% ([3]; 0.5 mmol/L): 22.5%
MA (60 c), % ([3]; 0.5 mmol/L): 48.2 ± 7.5%
(MAx-MA0): MA0 * 100% (Ozagrel: (MA0-MAx): MA0 * 100%) ([3]; 1.25 mmol/L): 30.9%
MA (60 c), % ([3]; 1.25 mmol/L): 43.0 ± 4.8%
(MAx-MA0): MA0 * 100% (Ozagrel: (MA0-MAx): MA0 * 100%) ([3]; 2.5 mmol/L): 43.4%
MA (60 c), % ([3]; 2.5 mmol/L): 35.2 ± 7.6%
(MAx-MA0): MA0 * 100% (Ozagrel: (MA0-MAx): MA0 * 100%) ([3]; 5.0 mmol/L): 48.4%
MA (60 c), % ([3]; 5.0 mmol/L): 32.1 ± 5.5%

Reference: patent publication US9249115B2, “N,N1 substituted piperazines having combined antiaggregant, anticoagulant and vasodilatory activity, and method for producing same” (Vertex Closed Joint Stock Company, priority 2011, dated 2016)
